The text below walks through data of US9260439B2, “Dihydropyrrolopyrimidine derivatives” (PFIZER INC., priority 2014, dated 2016).

Each structure is given as a SMILES string.

The target in this test is truncated PI3Kα (p110α/iSH2 p85α) (Homo sapiens (Human), UniProt P42336). Kind of test: PI3KA_Act fluorescence polarization kinase assay (Ki). It counts as biochemical. The settings on record: 1 mM ATP. The essentials: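 p110α/iSH2 p85α (0.5 nM) was reacted with 30 μM sonicated PIP2 in 50 mM HEPES pH 7.4, 150 mM NaCl, 5 mM MgCl2, 1 mM DTT and 0.05% CHAPS for 30 min at room temperature, then stopped with EDTA. PIP3 was detected by fluorescence polarization (GST-Grp1 PH domain/TAMRA-PIP3), and Ki came from a Morrison tight-binding fit.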
Chain of truncated PI3Kα (p110α/iSH2 p85α) (P42336 whole entry, the tested form may be a part): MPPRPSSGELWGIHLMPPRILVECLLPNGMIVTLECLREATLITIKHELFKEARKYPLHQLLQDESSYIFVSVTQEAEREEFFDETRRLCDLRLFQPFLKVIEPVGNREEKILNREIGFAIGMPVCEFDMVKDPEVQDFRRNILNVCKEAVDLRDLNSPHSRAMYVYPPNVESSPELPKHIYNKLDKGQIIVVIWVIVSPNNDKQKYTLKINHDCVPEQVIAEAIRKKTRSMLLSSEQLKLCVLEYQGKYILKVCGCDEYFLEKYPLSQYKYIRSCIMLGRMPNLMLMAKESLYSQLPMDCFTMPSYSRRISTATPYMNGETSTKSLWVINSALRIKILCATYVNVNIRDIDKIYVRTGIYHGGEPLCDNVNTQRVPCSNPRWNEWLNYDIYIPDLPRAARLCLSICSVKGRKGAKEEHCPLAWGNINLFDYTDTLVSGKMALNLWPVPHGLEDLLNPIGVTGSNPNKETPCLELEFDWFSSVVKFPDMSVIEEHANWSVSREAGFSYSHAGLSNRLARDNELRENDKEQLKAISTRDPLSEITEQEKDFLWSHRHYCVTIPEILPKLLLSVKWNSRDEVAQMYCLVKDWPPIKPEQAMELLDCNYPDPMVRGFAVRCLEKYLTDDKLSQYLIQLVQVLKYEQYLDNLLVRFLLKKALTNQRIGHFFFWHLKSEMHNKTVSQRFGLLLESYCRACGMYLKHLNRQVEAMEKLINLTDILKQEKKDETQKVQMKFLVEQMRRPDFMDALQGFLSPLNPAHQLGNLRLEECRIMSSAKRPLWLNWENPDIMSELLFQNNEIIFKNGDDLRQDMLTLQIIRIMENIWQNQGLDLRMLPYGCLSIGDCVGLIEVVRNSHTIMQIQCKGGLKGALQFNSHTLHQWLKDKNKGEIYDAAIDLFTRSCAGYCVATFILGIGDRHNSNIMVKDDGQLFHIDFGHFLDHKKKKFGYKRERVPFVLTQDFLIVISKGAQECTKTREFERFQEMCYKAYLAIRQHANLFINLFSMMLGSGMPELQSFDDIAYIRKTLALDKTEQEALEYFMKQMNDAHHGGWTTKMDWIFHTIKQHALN
As for `C[C@]1(N2CCc3c(-c4cnc(N)nc4)nc(N4CCOCC4)nc32)CCN(C(=O)N2CC(C#N)C2)C1` [Example 363, 1-({(3S)-3-[4-(2-aminopyrimidin-5-yl)-2-(morpholin-4-yl)-5,6-dihydro-7H-pyrrolo[2,3-d]pyrimidin-7-yl]-3-methylpyrrolidin-1-yl}carbonyl)azetidine-3-carbonitrile], the “PI3KA_Act Ki” value is reported as 0.039 nM.

For `C[C@@]1(N2CCc3c(-c4cnc(N)nc4)nc(N4CCOCC4)nc32)CCN(C(=O)N2CC(C#N)C2)C1` [Example 364, 1-({(3R)-3-[4-(2-aminopyrimidin-5-yl)-2-(morpholin-4-yl)-5,6-dihydro-7H-pyrrolo[2,3-d]pyrimidin-7-yl]-3-methylpyrrolidin-1-yl}carbonyl)azetidine-3-carbonitrile], the “PI3KA_Act Ki” value was determined as 0.262 nM.

Consider `C[C@@]1(N2CCc3c(-c4cnc(N)nc4)nc(N4CCOCC4)nc32)CCN(C(=O)N2CC(O)C2)C1` [Example 365, {(3R)-3-[4-(2-aminopyrimidin-5-yl)-2-(morpholin-4-yl)-5,6-dihydro-7H-pyrrolo[2,3-d]pyrimidin-7-yl]-3-methylpyrrolidin-1-yl}(3-hydroxyazetidin-1-yl)methanone], for which the “PI3KA_Act Ki” value came out at 0.063 nM.

Turning to `C[C@]1(N2CCc3c(-c4cnc(N)nc4)nc(N4CCOCC4)nc32)CCN(C(=O)N2CC(O)C2)C1` [Example 366, {(3S)-3-[4-(2-aminopyrimidin-5-yl)-2-(morpholin-4-yl)-5,6-dihydro-7H-pyrrolo[2,3-d]pyrimidin-7-yl]-3-methylpyrrolidin-1-yl}(3-hydroxyazetidin-1-yl)methanone], the “PI3KA_Act Ki” value is listed as 0.021 nM.

Take `COC1CN(C(=O)N2CC[C@](C)(N3CCc4c(-c5cnc(N)nc5)nc(N5CCOCC5)nc43)C2)C1` [Example 367, {(3S)-3-[4-(2-aminopyrimidin-5-yl)-2-(morpholin-4-yl)-5,6-dihydro-7H-pyrrolo[2,3-d]pyrimidin-7-yl]-3-methylpyrrolidin-1-yl}(3-methoxyazetidin-1-yl)methanone]: the “PI3KA_Act Ki” value is less than 0.018 nM.

`COC1CN(C(=O)N2CC[C@@](C)(N3CCc4c(-c5cnc(N)nc5)nc(N5CCOCC5)nc43)C2)C1` [Example 368, {(3R)-3-[4-(2-aminopyrimidin-5-yl)-2-(morpholin-4-yl)-5,6-dihydro-7H-pyrrolo[2,3-d]pyrimidin-7-yl]-3-methylpyrrolidin-1-yl}(3-methoxyazetidin-1-yl)methanone]: the “PI3KA_Act Ki” value came to 0.127 nM.

`CC1(O)CN(C(=O)N2CC[C@](C)(N3CCc4c(-c5cnc(N)nc5)nc(N5CCOCC5)nc43)C2)C1` [Example 369, {(3S)-3-[4-(2-aminopyrimidin-5-yl)-2-(morpholin-4-yl)-5,6-dihydro-7H-pyrrolo[2,3-d]pyrimidin-7-yl]-3-methylpyrrolidin-1-yl}(3-hydroxy-3-methylazetidin-1-yl)methanone]: the “PI3KA_Act Ki” value was less than 0.018 nM.

As for `CC(C)(C)OC(=O)N1CC[C@H]1C(=O)N1CC[C@](C)(N2CCc3c(-c4cnc(N)nc4)nc(N4CCOCC4)nc32)C1` [Example 370, tert-butyl (2S)-2-({(3S)-3-[4-(2-aminopyrimidin-5-yl)-2-(morpholin-4-yl)-5,6-dihydro-7H-pyrrolo[2,3-d]pyrimidin-7-yl]-3-methylpyrrolidin-1-yl}carbonyl)azetidine-1-carboxylate], the “PI3KA_Act Ki” value is given as 0.184 nM.

On to `C[C@]1(N2CCc3c(-c4cnc(N)nc4)nc(N4CCOCC4)nc32)CCN(C(=O)[C@@H]2CCCO2)C1` [Example 371, {(3S)-3-[4-(2-aminopyrimidin-5-yl)-2-(morpholin-4-yl)-5,6-dihydro-7H-pyrrolo[2,3-d]pyrimidin-7-yl]-3-methylpyrrolidin-1-yl}[(2S)-tetrahydrofuran-2-yl]methanone], for which the “PI3KA_Act Ki” value is 0.091 nM.

As to `C[C@]1(N2CCc3c(-c4cnc(N)nc4)nc(N4CCOCC4)nc32)CCN(C(=O)[C@H]2CCCO2)C1` [Example 372, {(3S)-3-[4-(2-aminopyrimidin-5-yl)-2-(morpholin-4-yl)-5,6-dihydro-7H-pyrrolo[2,3-d]pyrimidin-7-yl]-3-methylpyrrolidin-1-yl}[(2R)-tetrahydrofuran-2-yl]methanone], the “PI3KA_Act Ki” value is listed as 0.040 nM.

Consider `C[C@]1(N2CCc3c(-c4cnc(N)nc4)nc(N4CCOCC4)nc32)CCN(C(=O)[C@H]2CCOC2)C1` [Example 373, {(3S)-3-[4-(2-aminopyrimidin-5-yl)-2-(morpholin-4-yl)-5,6-dihydro-7H-pyrrolo[2,3-d]pyrimidin-7-yl]-3-methylpyrrolidin-1-yl}[(3S)-tetrahydrofuran-3-yl]methanone], for which the “PI3KA_Act Ki” value is reported as 0.028 nM.

In the case of `C[C@]1(N2CCc3c(-c4cnc(N)nc4)nc(N4CCOCC4)nc32)CCN(C(=O)[C@@H]2CCOC2)C1` [Example 374, {(3S)-3-[4-(2-aminopyrimidin-5-yl)-2-(morpholin-4-yl)-5,6-dihydro-7H-pyrrolo[2,3-d]pyrimidin-7-yl]-3-methylpyrrolidin-1-yl}[(3R)-tetrahydrofuran-3-yl]methanone], the “PI3KA_Act Ki” value stood at 0.027 nM.

As for `C[C@]1(N2CCc3c(-c4cnc(N)nc4)nc(N4CCOCC4)nc32)CCN(C(=O)[C@@H]2CCCN2)C1.Cl` [Example 377, {(3S)-3-[4-(2-aminopyrimidin-5-yl)-2-(morpholin-4-yl)-5,6-dihydro-7H-pyrrolo[2,3-d]pyrimidin-7-yl]-3-methylpyrrolidin-1-yl}[(2S)-pyrrolidin-2-yl]methanone hydrochloride], the “PI3KA_Act Ki” value was 0.026 nM.

For the compound `C[C@]1(N2CCc3c(-c4cnc(N)nc4)nc(N4CCOCC4)nc32)CCN(C(=O)[C@@H]2CCC(=O)N2)C1` [Example 378, (5S)-5-({(3S)-3-[4-(2-aminopyrimidin-5-yl)-2-(morpholin-4-yl)-5,6-dihydro-7H-pyrrolo[2,3-d]pyrimidin-7-yl]-3-methylpyrrolidin-1-yl}carbonyl)pyrrolidin-2-one], the “PI3KA_Act Ki” value is on record as 0.082 nM.

With `C[C@]1(N2CCc3c(-c4cnc(N)nc4)nc(N4CCOCC4)nc32)CCN(C(=O)[C@H]2CCC(=O)N2)C1` [Example 379, (5R)-5-({(3S)-3-[4-(2-aminopyrimidin-5-yl)-2-(morpholin-4-yl)-5,6-dihydro-7H-pyrrolo[2,3-d]pyrimidin-7-yl]-3-methylpyrrolidin-1-yl}carbonyl)pyrrolidin-2-one], the “PI3KA_Act Ki” value came out at 0.061 nM.

With `C[C@]1(N2CCc3c(-c4cnc(N)nc4)nc(N4CCOCC4)nc32)CCN(C(=O)C2(N)CCOC2)C1.Cl` (stereo partly drawn) [Example 380, {(3S)-3-[4-(2-aminopyrimidin-5-yl)-2-(morpholin-4-yl)-5,6-dihydro-7H-pyrrolo[2,3-d]pyrimidin-7-yl]-3-methylpyrrolidin-1-yl}(3-aminotetrahydrofuran-3-yl)methanone hydrochloride], the “PI3KA_Act Ki” value is reported as 0.030 nM.

For `C[C@]1(N2CCc3c(-c4cnc(N)nc4)nc(N4CCOCC4)nc32)CCN(C(=O)[C@H]2CCCN2)C1.Cl` [Example 382, {(3S)-3-[4-(2-aminopyrimidin-5-yl)-2-(morpholin-4-yl)-5,6-dihydro-7H-pyrrolo[2,3-d]pyrimidin-7-yl]-3-methylpyrrolidin-1-yl}[(2R)-pyrrolidin-2-yl]methanone hydrochloride], the “PI3KA_Act Ki” value is recorded as less than 0.018 nM.

With `C[C@]1(N2CCc3c(-c4cnc(N)nc4)nc(N4CCOCC4)nc32)CCN(C(=O)[C@]2(F)CCNC2)C1.Cl` [Example 383, {(3S)-3-[4-(2-aminopyrimidin-5-yl)-2-(morpholin-4-yl)-5,6-dihydro-7H-pyrrolo[2,3-d]pyrimidin-7-yl]-3-methylpyrrolidin-1-yl}[(3S)-3-fluoropyrrolidin-3-yl]methanone hydrochloride], the “PI3KA_Act Ki” value is less than 0.018 nM.

Regarding `C[C@]1(N2CCc3c(-c4cnc(N)nc4)nc(N4CCOCC4)nc32)CCN(C(=O)[C@@]2(F)CCNC2)C1.Cl` [Example 384], the “PI3KA_Act Ki” value is less than 0.018 nM.

For `Cn1nccc1C(=O)N1CC[C@](C)(N2CCc3c(-c4cnc(N)nc4)nc(N4CCOCC4)nc32)C1` [Example 385, {(3S)-3-[4-(2-aminopyrimidin-5-yl)-2-(morpholin-4-yl)-5,6-dihydro-7H-pyrrolo[2,3-d]pyrimidin-7-yl]-3-methylpyrrolidin-1-yl}(1-methyl-1H-pyrazol-5-yl)methanone], the “PI3KA_Act Ki” value was less than 0.018 nM.

As to `Cc1n[nH]cc1C(=O)N1CC[C@](C)(N2CCc3c(-c4cnc(N)nc4)nc(N4CCOCC4)nc32)C1` [Example 386, {(3S)-3-[4-(2-aminopyrimidin-5-yl)-2-(morpholin-4-yl)-5,6-dihydro-7H-pyrrolo[2,3-d]pyrimidin-7-yl]-3-methylpyrrolidin-1-yl}(3-methyl-1H-pyrazol-4-yl)methanone], the “PI3KA_Act Ki” value is recorded as less than 0.018 nM.

`C[C@]1(N2CCc3c(-c4cnc(N)nc4)nc(N4CCOCC4)nc32)CCN(C(=O)c2cn[nH]c2)C1` [Example 387, {(3S)-3-[4-(2-aminopyrimidin-5-yl)-2-(morpholin-4-yl)-5,6-dihydro-7H-pyrrolo[2,3-d]pyrimidin-7-yl]-3-methylpyrrolidin-1-yl}(1H-pyrazol-4-yl)methanone]: the “PI3KA_Act Ki” value is less than 0.018 nM.

`C[C@]1(N2CCc3c(-c4cnc(N)nc4)nc(N4CCOCC4)nc32)CCN(C(=O)c2ncc[nH]2)C1` [Example 388, {(3S)-3-[4-(2-aminopyrimidin-5-yl)-2-(morpholin-4-yl)-5,6-dihydro-7H-pyrrolo[2,3-d]pyrimidin-7-yl]-3-methylpyrrolidin-1-yl}(1H-imidazol-2-yl)methanone]: the “PI3KA_Act Ki” value is less than 0.018 nM.

As to `C[C@]1(N2CCc3c(-c4cnc(N)nc4)nc(N4CCOCC4)nc32)CCN(C(=O)c2cc[nH]n2)C1` [Example 389, {(3S)-3-[4-(2-aminopyrimidin-5-yl)-2-(morpholin-4-yl)-5,6-dihydro-7H-pyrrolo[2,3-d]pyrimidin-7-yl]-3-methylpyrrolidin-1-yl}(1H-pyrazol-3-yl)methanone], the “PI3KA_Act Ki” value was less than 0.018 nM.
